# Laboratory results from ChEMBL document CHEMBL3352797, “Design of granulatimide and isogranulatimide analogues as potential Chk1 inhibitors: Study of amino-platforms for their synthesis” (Bioorg Med Chem, 2014).
# pIC50: −log10 of the molar value.
# Target: T1, Serine/threonine-protein kinase Chk1 (Homo sapiens, UniProt O14757)
# T1 sequence (O14757 whole entry): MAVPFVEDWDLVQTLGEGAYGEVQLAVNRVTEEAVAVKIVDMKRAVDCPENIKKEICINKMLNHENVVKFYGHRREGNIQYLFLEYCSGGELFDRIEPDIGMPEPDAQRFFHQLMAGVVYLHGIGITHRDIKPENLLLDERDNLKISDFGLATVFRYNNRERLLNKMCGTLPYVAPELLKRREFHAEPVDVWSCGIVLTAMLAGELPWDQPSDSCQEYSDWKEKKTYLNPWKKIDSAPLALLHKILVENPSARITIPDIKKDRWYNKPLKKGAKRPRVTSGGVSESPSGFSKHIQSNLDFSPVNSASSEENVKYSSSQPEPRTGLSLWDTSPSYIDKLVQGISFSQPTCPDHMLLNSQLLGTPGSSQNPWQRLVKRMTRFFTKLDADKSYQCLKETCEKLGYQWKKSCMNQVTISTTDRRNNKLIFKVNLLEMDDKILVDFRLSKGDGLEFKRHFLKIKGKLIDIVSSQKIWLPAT
# Experiment: Inhibition of Chk1 (unknown origin)
smiles,measurement,value
O=C1NC(=O)c2c1c1[nH]cnc1c1[nH]c3ccccc3c21 [GRANULATIMIDE],pIC50,6.60
